Experimental data reported in publication PMC10534582, “A Pharmacokinetic Study of Sixteen Major Bioactive Components of Jinshui-Huanxian Granules in Pulmonary Fibrosis Model and Control Rats Using Orbitrap Fusion Mass Spectrometry” (Molecules, 2023).
Where two headings read alike, the source gives them in different places.

Assay: Pharmacokinetics of JHG components in control rats after intragastric administration of JHGs (plasma, Orbitrap Fusion MS)
Format: in vivo, Sprague Dawley (SD) rats
Conditions: for AUC(0-inf) / AUC(0-t) / half-life / MRT last / MRT inf / Tmax / Cmax: male, rat, plasma, po; for MRT last: read-out: MRT(0-t); for MRT inf: read-out: MRT(0-∞); for Cmax: intragastric JHGs; for pharmacokinetic process (Cmax and AUCs versus dosage): low, medium, high doses of JHGs
Procedure: Healthy male Sprague Dawley (SD) rats of SPF grade (240 ± 20 g) were purchased from Sipeifu (Beijing, China) Biotechnology Co., Ltd. (Beijing, China), Certificate of Conformity No.: SCYK (Beijing, China) 2019-0015, Animal Quality Certificate No.: 110324220102348616. They were housed in the Animal Center of Henan University of Traditional Chinese Medicine, which passed the ethical audit, ethics number: DWLL202208003, breeding Co. 24 °C, relative humidity 50 ± 2%. The animals fasted for 12 h before the experiment and drank water freely. All feeding and experimental studies on experimental animals were in accordance with the regulations on the Management of Experimental Animals in Henan Province.
Twenty-four healthy male SD rats or PF model rats, weighing 240 ± 20 g, fasted for 12 h before the experiment and drank water freely. Both kinds of rats were randomly divided into four groups. Blank group: equal dose of water by intragastric, low dose; administration group: rats were given the equivalent human dose of JHGs by intragastric, i.e., 10.8 g of raw drug/kg/d (5.70 g/kg/d); medium-dose administration group: 2 times the human equivalent dose of JHGs by intragastric, i.e., 21.6 g of raw drug/kg/d (11.41 g/kg/d); high-dose administration group: 4 times the human equivalent dose of JHG, i.e., 43.2 g of raw drug/kg/d (22.81 g/kg/d). Blood was collected from the tail vein before and 0.083, 0.25, 0.5, 0.75, 1, 1.5, 2, 3, 4, 6, 8, 12, 18, and 24 h after dosing, respectively. A total of 0.5 mL was placed in a heparin sodium centrifuge tube. Whole blood was left for 30 min and then centrifuged in a low-temperature freezing centrifuge (4 °C, 3000 r/min) for 15 min. The upper layer of plasma was collected and stored in a refrigerator at −80 °C.
We added 50 μL of internal standard solution and 800 μL of methanol, shook for 15 min, then centrifuged at 12,000 r/min for 10 min, took the supernatant, dried in a centrifuge concentrator, added 50 μL of the initial mobile phase to the residue, dissolved, centrifuged, then separated the upper layer of the solution used as the test solution. A total of 5 μL test solution was taken into the sample for analysis. For each compound with a certain dosage, the same procedure is repeated six times in parallel. The concentration in plasma was calculated by the internal standard method.
Accucore C18 (100 mm × 2.1 mm, 2.6 μm) column at 25 °C, the mobile phase was methanol (A)-0.1% formic acid aqueous solution (B). The gradient elution program was 0–4 min (65% B-40% B), 4–5 min (40% B-40% B), 5–6 min (40% B-28% B), and 6–7 min (28% B-19% B), 7–7.5 min (19% B-10% B), 7.5–11 min (10% B-0% B), the flow rate was 0.2 mL/min, and the injection volume was 5 μL.
The ion source was an electrospray ionization source (ESI). Nitrogen acted as a carrier gas. The sheath gas pressure was 35 Arb. The auxiliary gas pressure was 7 Arb. The spray voltage was 3.50 kv(+), 2.50 kv(-). The ion transport tube temperature was regulated at 300 °C. Gasification temperature was 275 °C. The resolution was 50,000. The scanning mode was set as SIM mode. The optimized parameters obtained are in Table 5.
Under the established Orbitrap Fusion MS method, the pharmacokinetics of JHG in rats were studied to investigate the dynamic changes of the active components in rats. The pharmacokinetic parameters of each component in each dosing group were calculated by […] model analysis using Kinetica 5.1 (Innaphase, Waltham, MA, USA) pharmacokinetic analysis software. The pharmacotemporal curves were plotted by the plotting software. SPSS 19.0 (IBM, Armonk, NY, USA) was used to analyze all the parameters. Independent sample tests were performed after natural logarithmic transformation for AUC0–t, Cmax. The nonparametric Mann–Whitney test was applied for Tmax, t½, and MRT0–t. p < 0.05 was considered statistically significant.

[1] = Sprague Dawley, 5.7 g/kg/day, JHGs low dose 5.70 g/kg/d
[2] = Sprague Dawley, 5.7 g/kg/day, JHGs low dose 5.70 g/kg/d, read-out: Tmax
[3] = Sprague Dawley, 5.7 g/kg/day, low dose 5.70 g/kg/d, n=6 (1st of 3 stacked values)
[4] = Sprague Dawley, 11.41 g/kg/day, JHGs medium dose 11.41 g/kg/d
[5] = Sprague Dawley, 11.41 g/kg/day, JHGs medium dose 11.41 g/kg/d, read-out: Tmax
[6] = Sprague Dawley, 11.41 g/kg/day, medium dose 11.41 g/kg/d, n=6 (2nd of 3 stacked values)
[7] = Sprague Dawley, 22.81 g/kg/day, JHGs high dose 22.81 g/kg/d
[8] = Sprague Dawley, 22.81 g/kg/day, JHGs high dose 22.81 g/kg/d, read-out: Tmax
[9] = Sprague Dawley, 22.81 g/kg/day, high dose 22.81 g/kg/d, n=6 (3rd of 3 stacked values)
[10] = Sprague-Dawley, after administration of JHGs, read-out: Tmax of all dosages

| Structure (SMILES) | Clearances (JHGs high dose 22.81 g/kg/d) [mL/min/kg] | Vss (JHGs high dose 22.81 g/kg/d) [L] | Clearances (JHGs low dose 5.70 g/kg/d) [mL/min/kg] | Vss (JHGs low dose 5.70 g/kg/d) [L] | Clearances (JHGs medium dose 11.41 g/kg/d) [mL/min/kg] | Vss (JHGs medium dose 11.41 g/kg/d) [L] | AUC(0-inf) [1] [ng·h/mL] | AUC(0-t) [1] [ng·h/mL] | half-life [1] [h] | MRT last [1] [h] | MRT inf [1] [h] | Tmax [2] [h] | Cmax [3] [ng/mL] | AUC(0-inf) [4] [ng·h/mL] | AUC(0-t) [4] [ng·h/mL] | half-life [4] [h] | MRT last [4] [h] | MRT inf [4] [h] | Tmax [5] [h] | Cmax [6] [ng/mL] | further results |
| --- | --- | --- | --- | --- | --- | --- | --- | --- | --- | --- | --- | --- | --- | --- | --- | --- | --- | --- | --- | --- | --- |
| COc1ccc(-c2cc(=O)c3c(OC)c(OC)c(OC)c(OC)c3o2)cc1OC [Nobiletin] | 805.7 ± 251.3 | 882.05 ± 234.11 | 271.5 ± 60.7 | 287.56 ± 59.62 | 466.5 ± 143 | 642.56 ± 174.23 | 21.1 ± 6.95 | 15.6 ± 4.99 | 13.5 ± 1.64 | 8.63 ± 0.2 | 17.8 ± 2.23 | 0.75 | 2.51 ± 0.77 | 22.3 ± 6.8 | 14.4 ± 4.14 | 18.7 ± 2.51 | 8.19 ± 0.19 | 23.3 ± 3.85 | 0.75 | 3.02 ± 0.58 | t1/2 (JHGs high dose 22.81 g/kg/d): 16.19 ± 7.02 h; AUC(0-inf) [7]: 25.9 ± 9.57 ng·h/mL; AUC(0-t) [7]: 17.9 ± 4.56 ng·h/mL; MRT last [7]: 7.37 ± 0.43 h; MRT inf [7]: 19.5 ± 7.12 h; Tmax [8]: 0.75 h; Cmax [9]: 4.46 ± 1.06 ng/mL; Tmax [10]: ≤ 2 h |
| CC1=C2CC3C(CC(=O)C4CC(O)CCC43C)C2CCC12OC1CC(C)CNC1C2C (centres unmarked) [Peimisine] | 3.3 ± 0.5 | 3.96 ± 0.82 | 2.5 ± 0.67 | 3.26 ± 0.57 | 3.17 ± 0.83 | 3.98 ± 0.82 | 19.5 ± 5.73 | 12.4 ± 2.56 | 16.5 ± 2.09 | 9.16 ± 0.22 | 22.8 ± 3.24 | 4 | 1.49 ± 0.16 | 26.9 ± 7.93 | 17.8 ± 4.48 | 15.2 ± 1.25 | 9.14 ± 0.03 | 21.3 ± 1.78 | 4 | 2.08 ± 0.54 | pharmacokinetic process (Cmax and AUCs versus dosage): linear pharmacokinetic process; AUC(0-inf) [7]: 48.9 ± 9.74 ng·h/mL; AUC(0-t) [7]: 34.9 ± 8.14 ng·h/mL; half-life [7]: 11.4 ± 0.71 h; MRT last [7]: 11.34 ± 0.11 h; MRT inf [7]: 19.8 ± 0.92 h; Tmax [8]: 8 h; Cmax [9]: 2.35 ± 0.53 ng/mL |
| COc1ccc(C(C)=O)c(O)c1 [Paeonol] | 2357.3 ± 393.5 | 1831.33 ± 158.35 | 1602 ± 417.2 | 1528.44 ± 295.01 | 2679.2 ± 604.3 | 2003.58 ± 215.42 | 55.6 ± 13 | 42.4 ± 8.94 | 13.2 ± 1.77 | 7.84 ± 0.03 | 16.1 ± 1.86 | 0.75 | 6.6 ± 1.48 | 59.2 ± 14.8 | 48.6 ± 10.1 | 11.1 ± 1.41 | 6.91 ± 0.23 | 12.7 ± 1.67 | 0.75 | 11.7 ± 2.03 | AUC(0-inf) [7]: 131 ± 20.9 ng·h/mL; AUC(0-t) [7]: 106 ± 6.95 ng·h/mL; half-life [7]: 9.02 ± 3.68 h; MRT last [7]: 7.77 ± 0.37 h; MRT inf [7]: 13.3 ± 3.52 h; Tmax [8]: 2 h; Cmax [9]: 15.7 ± 1.66 ng/mL; Tmax [10]: ≤ 2 h |
| O=c1cc(-c2ccc(O)c(O)c2)oc2cc(O[C@@H]3O[C@H](CO)[C@@H](O)[C@H](O)[C@H]3O)cc(O)c12 [Cynaroside] | 2.5 ± 0.17 | 1.35 ± 0.09 | 1 ± 0.17 | 0.6 ± 0.08 | 1.3 ± 0.17 | 0.83 ± 0.06 | 312 ± 26 | 290 ± 24.4 | 5.75 ± 0.55 | 7.83 ± 0.02 | 9.56 ± 0.13 | 6 | 44 ± 5.61 | 433 ± 43.5 | 402 ± 39.2 | 5.75 ± 0.11 | 8.56 ± 0.09 | 10.3 ± 0.15 | 6 | 57.7 ± 5.09 | AUCs compared among the analytes: highest; correlation between CL, AUCs (AUC(0–t), AUC (0–∞)), t½, and dose: there was a correlation; pharmacokinetic process (Cmax and AUCs versus dosage): linear pharmacokinetic process; AUC(0-inf) [7]: 472 ± 31.3 ng·h/mL; AUC(0-t) [7]: 438 ± 27.6 ng·h/mL; half-life [7]: 5.1 ± 0.13 h; MRT last [7]: 7.51 ± 0.01 h; MRT inf [7]: 9.2 ± 0.11 h; Tmax [8]: 6 h; Cmax [9]: 79.5 ± 3.5 ng/mL; Tmax compared among the analytes (no matter the dosages): longest |
| O=c1cc(-c2ccc(O)cc2)oc2cc(OC3OC(CO)C(O)C(O)C3O)cc(O)c12 (centres unmarked) [Apigenin-7-glucoside] | 7.33 ± 1.2 | 6.6 ± 0.86 | 3.3 ± 0.67 | 3.94 ± 0.41 | 6 ± 1.3 | 5.33 ± 0.41 | 29.1 ± 6.32 | 20.2 ± 1.99 | 15.4 ± 4.12 | 8.84 ± 0.05 | 20.1 ± 4.89 | 1.83 ± 0.2 | 1.99 ± 0.17 | 28.9 ± 6.86 | 22.2 ± 2.68 | 11 ± 5.32 | 7.89 ± 0.21 | 15.3 ± 4.77 | 1.5 | 3.22 ± 0.44 | AUC(0-inf) [7]: 46.5 ± 7.55 ng·h/mL; AUC(0-t) [7]: 36.5 ± 5.3 ng·h/mL; half-life [7]: 9.62 ± 0.54 h; MRT last [7]: 8.8 ± 0.07 h; MRT inf [7]: 15 ± 0.61 h; Tmax [8]: 1.67 ± 0.29 h; Cmax [9]: 3.88 ± 0.42 ng/mL; Tmax [10]: ≤ 2 h |
